Data on 1 substance can be found in ChEMBL document CHEMBL1145485, “Immunomodulatory peptide from cystatin, a natural cysteine protease inhibitor, against leishmaniasis as a model macrophage disease” (Antimicrob Agents Chemother, 2007).

Activity calls are given as the source filed them. No cut-off for these calls is given here.

Assay [1] concerns Macrophage. The experiment in a line: Reversal of increase in NO release in BALB/c mouse peritoneal macrophages upto 1 uM in presence of anti-peptide antibody. It counts as functional, cell-based.
The test system of assay [2] is Macrophage. The assay can be described thus: Increase in NO release in BALB/c mouse peritoneal macrophages upto 1 uM. It counts as functional, cell-based.
The subject of assay [3] is Leishmania donovani. The assay can be described thus: Antileishmanial activity against Leishmania donovani MHOM/IN/1983 infected BALB/c mouse peritoneal macrophages in presence of IFN-gamma. It counts as functional, organism-based.
The test system of assay [4] is Leishmania donovani. The assay can be described thus: Reversal of antileishmanial activity against Leishmania donovani MHOM/IN/1983 infected BALB/c mouse peritoneal macrophages in presence of 2-amino-5,6-dihydro-6-methyl-4H-1,3-thiazine. The assay is classed as functional, organism-based.
For assay [5], the system named is Leishmania donovani. The assay can be described thus: Reversal of antileishmanial activity against Leishmania donovani MHOM/IN/1983 infected BALB/c mouse peritoneal macrophages in presence of anti-peptide antibody. The assay is classed as functional, organism-based.
Assay [6] concerns Leishmania donovani. The assay can be described thus: Antileishmanial activity against Leishmania donovani AG83 infected BALB/c mouse assessed as reduction of spleen burden at 0.5 mg/kg/day, iv in presence of IFN-gamma after 45 days. The assay is classed as functional. Set-up: scale not given: the % may be the effect or the level left.
In assay [7] the test system is Leishmania donovani. The experiment in a line: Antileishmanial activity against Leishmania donovani AG83 infected BALB/c mouse assessed as reduction of liver burden at 0.5 mg/kg/day, iv in presence of IFN-gamma after 45 days. Set-up: scale not given: the % may be the effect or the level left. The assay is classed as functional.

One may read the IC50 as the concentration that gives 50% inhibition. As to H-PVPVDENDEG-OH, the result with Macrophage [1], with Macrophage [2], with Leishmania donovani [4] and in the assay with Leishmania donovani [5] was Active. In addition, in the assay on Leishmania donovani [3], the IC50 turned out to be 0.52 µg/mL. Also, the results for the Activity in the assay with Leishmania donovani [6] and with Leishmania donovani [7] were 95% and 93%, respectively.
